Measured values published in patent US11040053B2, “Compositions and methods for activating “stimulator of interferon gene”13 dependent signalling” (CHINOOK THERAPEUTICS, INC., priority 2015, dated 2021).
pEC50, pKd: −log10 of the molar value.

Experiments:
hSTING HAQ allele = target: T1, hSTING HAQ allele (Homo sapiens, UniProt Q86WV6, G230A/H232R/R293Q/R71H); experiment: IRF-3 inducible secreted luciferase reporter in THP1-Dual cells without digitonin; format: cell-based; details: for activity relative to OH reference compound, in words: Table 5 comment, THP1 cells without digitonin; for pEC50: without digitonin in THP1 cells (HAQ allele)
T1 construct: a human monocyte cell line containing the hSTING HAQ allele; host or cells: THP1-Dual cells
Experimental: After 30 minutes, cells were washed and fresh RPMI media containing 10% FBS was added, and cells were incubated at 37° C. with 5% CO2 Cell culture supernatants from each sample were collected after overnight incubation, and 10 μL of the cell culture supernatants was added to 50 μL QUANTI-Luc reagent (Invivogen). Type I interferon activation was determined by measuring secreted luciferase levels on a SpectraMax M3 spectrophotometer (Molecular Devices). The EC50 value was determined from the dose-response curve for the 10 concentrations from the serial dilution of the reference compounds and compounds of the invention tested in this assay as listed in Table 5.

[1] = target: T2, human-STING(E149-S379)H232R protein (Homo sapiens, UniProt Q86WV6, H232R); experiment: Surface Plasmon Resonance binding to hSTING WT; details: Biacore T200, 15° C., steady-state analysis
T2 construct: His6 (C); made in house; host or cells: E. coli
Experimental: Binding of the mono- and di-F CDN compounds was assessed using Surface Plasmon Resononce to determine a binding constant. An E. coli expression construct (human-STING[E149-S379]H232R) was prepared harboring the protein sequence:
Aliquots were prepared and stored at −80° C. in 30 mM Tris pH 7.5/100 mM NaCl/10% glycerol.
N-terminal avi-tagged human-STING(E149-S379)H232R protein was immobilized (2500 RUs) on a streptavidin chip at 15° C. in a Biacore T200 (GE Healthcare). Titrations of cyclic dinucleotides (CDNs as indicated in Table 6) in 30 mM Tris pH 7.5/50 mM NaCL/0.005% Tween 20/1 mM DTT/2% DMSO, were profiled (30 μLs/min, 180 seconds for sample contact/120 seconds for dissociation) against hSTING at 15° C. Kinetic analysis of the data was performed using Biacore T200 Evaluation software. Steady-state analysis of the data was performed using Graphpad Prism 6.0 software, using one site-specific binding algorithm (Equation is Y=Bmax*X/(Kd+X)).

hSTING(WT) = hSTING(WT) (Homo sapiens, UniProt Q86WV6, H232R); experiment: Differential scanning fluorometry (DSF) binding to purified hSTING WT; set-up: DNA encoding amino acids 140-379 (amino acid numbering corresponding to Swiss Prot Q86WV6); 6xHIS (N, cleaved yes); SUMO (N, cleaved yes); made in house; host or cells: Rosetta2 (DE3) E. coli; details: for hSTING Tm Shift WT: DSF, 1 mg/ml STING AA140-379, ligand 1 mM
Experimental: (§1) Cells were grown in lysogeny broth at 37° C. until a […] absorbance of 0.6 was reached. […] Cell pellets were re-suspended on ice in a buffer containing 50 mM Tris hydrochloride (Tris-HCl) pH 7.5, 500 mM sodium chloride (NaCl), 20 mM imidazole, 10% glycerol, 1 mM tris(2-carboxyethyl)phosphine hydrochloride (TCEP) and protease inhibitor tablet (Pierce) (Buffer A). Cells were lysed using an S-450D sonifier (Emmerson industrial) on ice. […] Protein was aliquoted, flash frozen in liquid nitrogen and stored at −80° C. until use.
(§2) The protein is heated in the presence of a dye that binds to and fluoresces in hydrophobic environments. The protein is thermally denatured by heating resulting in increased dye binding to the unfolded protein and fluorescence. The temperature midpoint (Tm) of a proteins denaturation is established by calculating the half maximal value of the denaturation curve. The temperature midpoint of the protein in the presence of a ligand is directly related to the affinity of the ligand for the protein and therefore its ability to stabilize the protein at higher temperatures.
(§3) Samples were placed in hard shell PCR plate (Bio-Rad). The fluorescence as a function of temperature was recorded in a CFX 96 real time PCR machine (Bio-Rad) reading on the HEX channel, excitation 450-490, emission 560-580 nm. The temperature gradient was from 15-80° C. ramping 0.5° C. per 15 seconds and recording every 0.5° C. After subtraction of the background signal from a sample lacking protein and ligand. The midpoint temperature (Tm) was calculated by fitting the curves of the fluorescence as a function of temperature to a Boltzmann sigmoidal function (Graph Pad Prism).

HAQ allele hSTING = target: T3, HAQ allele hSTING (Homo sapiens, UniProt Q86WV6, G230A/H232R/R293Q); experiment: Differential scanning fluorometry (DSF) binding to purified hSTING HAQ allele; details: for hSTING Tm Shift HAQ: DSF, 1 mg/ml STING AA140-379, ligand 1 mM
T3 construct: DNA encoding amino acids 140-379 (amino acid numbering corresponding to Swiss Prot Q86WV6); 6xHIS (N, cleaved yes); SUMO (N, cleaved yes); made in house; host or cells: Rosetta2 (DE3) E. coli
Experimental: as §1, §2, §3

hSTING(REF) = hSTING(REF) (Homo sapiens, UniProt Q86WV6); experiment: Differential scanning fluorometry (DSF) binding to purified hSTING REF allele; set-up: DNA encoding amino acids 140-379 (amino acid numbering corresponding to Swiss Prot Q86WV6); 6xHIS (N, cleaved yes); SUMO (N, cleaved yes); made in house; host or cells: Rosetta2 (DE3) E. coli; details: for hSTING Tm Shift REF: DSF, 1 mg/ml STING AA140-379, ligand 1 mM
Experimental: as §1, §2, §3

T3 sequence (Q86WV6 140-379 G230A/H232R/R293Q limits assumed): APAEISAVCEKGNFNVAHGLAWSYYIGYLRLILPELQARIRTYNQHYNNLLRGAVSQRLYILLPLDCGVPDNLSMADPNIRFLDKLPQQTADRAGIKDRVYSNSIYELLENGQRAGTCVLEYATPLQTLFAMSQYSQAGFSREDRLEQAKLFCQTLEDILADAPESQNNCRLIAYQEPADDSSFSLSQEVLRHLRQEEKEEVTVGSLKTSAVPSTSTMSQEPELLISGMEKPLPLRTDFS
Sequence of hSTING(WT) (Q86WV6 140-379 H232R): as the sequence (Q86WV6 140-379 G230A/H232R/R293Q limits assumed) above, with A91G, Q154R counted along it
Sequence of hSTING(REF) (Q86WV6 140-379): as the sequence (Q86WV6 140-379 G230A/H232R/R293Q limits assumed) above, with A91G, R93H, Q154R counted along it
T1 sequence (Q86WV6 whole entry R71H/G230A/H232R/R293Q): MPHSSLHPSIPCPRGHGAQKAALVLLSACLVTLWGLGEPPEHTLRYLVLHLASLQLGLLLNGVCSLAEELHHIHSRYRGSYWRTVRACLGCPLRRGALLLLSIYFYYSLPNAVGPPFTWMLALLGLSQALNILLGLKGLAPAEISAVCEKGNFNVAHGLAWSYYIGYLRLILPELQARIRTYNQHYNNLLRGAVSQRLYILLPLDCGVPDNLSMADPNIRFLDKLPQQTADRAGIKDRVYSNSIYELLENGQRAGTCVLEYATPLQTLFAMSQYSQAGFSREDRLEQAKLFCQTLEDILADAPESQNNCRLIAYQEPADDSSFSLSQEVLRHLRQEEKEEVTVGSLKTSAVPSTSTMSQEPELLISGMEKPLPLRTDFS
T2 sequence (Q86WV6 with tags, fused parts or gaps H232R): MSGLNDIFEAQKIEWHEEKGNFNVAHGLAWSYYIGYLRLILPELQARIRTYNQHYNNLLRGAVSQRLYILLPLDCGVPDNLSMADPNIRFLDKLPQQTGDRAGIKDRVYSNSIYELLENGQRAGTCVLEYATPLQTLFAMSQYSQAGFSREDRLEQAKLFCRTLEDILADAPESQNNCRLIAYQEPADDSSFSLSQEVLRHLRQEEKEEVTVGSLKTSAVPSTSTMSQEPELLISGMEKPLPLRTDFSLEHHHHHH

Structure (SMILES) | activity relative to OH reference compound, in words (hSTING HAQ allele) | pEC50 (hSTING HAQ allele) | pKd [1] | hSTING Tm Shift WT (hSTING(WT)) [°C] | hSTING Tm Shift HAQ (HAQ allele hSTING) [°C] | hSTING Tm Shift REF (hSTING(REF)) [°C] | binding relative to OH reference compound, in words (hSTING(WT); Table 4 comment, wild type hSTING) | binding relative to OH reference compound, in words (HAQ allele hSTING; Table 4 comment, HAQ allele hSTING) | binding relative to OH reference compound, in words (hSTING(REF); Table 4 comment, REF allele hSTING)
Nc1ncnc2c1ncn2[C@@H]1O[C@@H]2CO[P@@](=O)(S)O[C@H]3[C@@H](F)[C@H](n4cnc5c(N)ncnc54)O[C@@H]3CO[P@](=O)(S)O[C@H]2[C@H]1F [Compound 6a, (2R,3R,3aR,5R,7aR,9R,10R,10aR,12S,14aR)-2,9-bis(6-amino-9H-purin-9-yl)-3,10-difluoro-5,12-dimercaptooctahydro-2H,7H-difuro [3,2-d:3′,2′-j][1,3,7,9]tetraoxa[2,8]diphosphacyclododecine 5,12-dioxide] | improved activity | 5.10 | 7.54 | – | – | – | – | – | –
Nc1nc2c(ncn2[C@@H]2O[C@@H]3CO[P@@](=O)(S)O[C@H]4[C@@H](F)[C@H](n5cnc6c(N)ncnc65)O[C@@H]4CO[P@@](=O)(S)O[C@H]3[C@H]2F)c(=O)[nH]1 [Compound 14, 2-Amino-9-((2R,3R,3aR,5R,7aR,9R,10R,10aR,12R,14aR)-9-(6-amino-9H-purin-9-yl)-3,10-difluoro-5,12-dimercapto-5,12-dioxidooctahydro-2H,7H-difuro [3,2-d:3′,2′-j][1,3,7,9]tetraoxa[2,8]diphosphacyclododecin-2-yl)-1,9-dihydro-6H-purin-6-one] | – | 5.52 | 7.03 | 19.3 | 34.2 | 12.5 | – | – | –
CC(C)C(=O)Nc1nc2c(ncn2[C@@H]2O[C@@H]3CO[P@](=O)(S)O[C@H]4[C@@H](F)[C@H](n5cnc6c(NC(=O)c7ccccc7)ncnc65)O[C@@H]4CO[P@@](=O)(S)O[C@H]3[C@H]2F)c(=O)[nH]1 [Compound 25a, N-(9-((2R,3R,3aR,5S,7aR,9R,10R,10aR,12R,14aR)-3,10-difluoro-9-(2-isobutyramido-6-oxo-1,6-dihydro-9H-purin-9-yl)-5,12-dimercapto-5,12-dioxidooctahydro-2H,7H-difuro[3,2-d:3′,2′-j][1,3,7,9]tetraoxa[2,8]diphosphacyclododecin-2-yl)-9H-purin-6-yl)benzamide] | – | < 3.82 | – | 6.8 | 8.9 | 5.4 | – | – | –
Nc1nc2c(ncn2[C@@H]2O[C@@H]3CO[P@](=O)(S)O[C@H]4[C@@H](F)[C@H](n5cnc6c(N)ncnc65)O[C@@H]4CO[P@@](=O)(S)O[C@H]3[C@H]2F)c(=O)[nH]1 [Compound 14a, 2-amino-9-((2R,3R,3aR,5R,7aR,9R,10R,10aR,12S,14aR)-9-(6-amino-9H-purin-9-yl)-3,10-difluoro-5,12-dimercapto-5,12-dioxidooctahydro-2H,7H-difuro [3,2-d:3′,2′-j][1,3,7,9]tetraoxa[2,8]diphosphacyclododecin-2-yl)-1,9-dihydro-6H-purin-6-one] | improved activity | 4.74 | 7.01 | – | – | – | – | – | –
Nc1ncnc2c1ncn2[C@@H]1O[C@@H]2COP(=O)(O)O[C@H]3[C@@H](F)[C@H](n4cnc5c(N)ncnc54)O[C@@H]3COP(=O)(O)O[C@H]2[C@H]1F [3'3'-(2'F-A)(2'F-A), reference compound] | – | – | 7.96 | 12.6 | 20.6 | 6.4 | – | – | –
Nc1nc2c(ncn2[C@@H]2O[C@@H]3CO[P@](=O)(S)O[C@H]4[C@@H](F)[C@H](n5cnc6c(N)ncnc65)O[C@@H]4CO[P@@](=O)(S)O[C@H]3[C@H]2O)c(=O)[nH]1 [Compound 24a, 2-amino-9-((2R,3R,3aS,5R,7aR,9R,10R,10aR,12S,14aR)-9-(6-amino-9H-purin-9-yl)-10-fluoro-3-hydroxy-5,12-dimercapto-5,12-dioxidooctahydro-2H,7H-difuro[3,2-d:3′,2′-j][1,3,7,9]tetraoxa[2,8]diphosphacyclododecin-2-yl)-1,9-dihydro-6H-purin-6-one] | – | 4.05 | 6.16 | 9.3 | 15.3 | 7.0 | – | – | –
Nc1nc2c(ncn2[C@@H]2O[C@@H]3COP(=O)(O)O[C@H]4[C@@H](F)[C@H](n5cnc6c(N)ncnc65)O[C@@H]4COP(=O)(O)O[C@H]3[C@H]2F)c(=O)[nH]1 [Compound 30, 2-amino-9-((2R,3R,3aR,7aR,9R,10R,10aR,14aR)-9-(6-amino-9H-purin-9-yl)-3,10-difluoro-5,12-dihydroxy-5,12-dioxidooctahydro-2H,7H-difuro[3,2-d:3′,2′-j][1,3,7,9]tetraoxa[2,8]diphosphacyclododecin-2-yl)-1,9-dihydro-6H-purin-6-one] | – | 5.00 | – | 14.3 | 27.7 | 7.8 | – | – | –
Nc1nc2c(ncn2[C@@H]2O[C@@H]3CO[P@@](=O)(S)O[C@H]4[C@@H](F)[C@H](n5cnc6c(=O)[nH]c(N)nc65)O[C@@H]4CO[P@@](=O)(S)O[C@H]3[C@H]2F)c(=O)[nH]1 [Compound 17, 9,9′-((2R,3R,3aR,5R,7aR,9R,10R,10aR,12R,14aR)-3,10-difluoro-5,12-dimercapto-5,12-dioxidooctahydro-2H,7H-difuro [3,2-d:3′,2′-j][1,3,7,9]tetraoxa[2,8]diphosphacyclododecine-2,9-diyl)bis(2-amino-1,9-dihydro-6H-purin-6-one)] | improved activity | 5.10 | – | 12.6 | 22.6 | 11.4 | improved binding | improved binding | improved binding
